# Experimental data reported in ChEMBL document CHEMBL3507680, “University of Dundee, Gates Library screen for HepG2 cell viability”.
# Test: Human HepG2 cell viability assay in 384 well format
# Type: toxicity, cell-based
# Design: dose 125 nL, time 70.5 hour; concentration not given beside the values
# Settings: HepG2 cells, read-out: Inhibition
row,SMILES,cytotoxicity at 70.5 h
1,Cc1nn(-c2ccccc2)nc1C(=O)N1CCCC(n2cccn2)C1 (configuration not stated),-1.86%
2,O=C(Nc1cccc(OCC(F)F)n1)c1ccncc1F,-6.41%
3,COc1ccc(CN2CCSCC2)c(OC)c1,-6.31%
4,CC(=O)N1CCc2c(nc(-c3cccnc3)nc2N(C)CC(O)CO)C1 (configuration not stated),-6.57%
5,CN1CCN2CCN(Cc3cnc(NCc4ccccc4)nc3)CC2C1 (configuration not stated),24%
6,Cn1ccnc1CN1CCN(CC(O)c2cc(F)ccc2F)CC1 (configuration not stated),-10.1%
7,c1cnc(N2CCO[C@H]3[C@H](OCc4cccnc4)CC[C@@H]32)nc1,13.6%
8,CN1CCC(CNC(=O)NCc2ccc(N(C)C)cc2)CC1,-2.97%
9,Cn1ccc(CN2CCCC23CCN(Cc2ccccc2F)CC3)n1,-4.06%
10,CC(C)(CNC(=O)C1(c2ccccc2)CCOCC1)C(=O)O,-1.55%
11,COc1cccc(N2CCN(C(=O)C(O)c3ccccc3Cl)CC2=O)c1 (configuration not stated),-4.36%
12,Cc1nc(-c2ccc(Cl)s2)sc1C(=O)NCCCC(N)=O,-4.42%
13,O=C1CCCc2[nH]c(=O)c(C(=O)N3CCc4ccccc4C3)cc21,0.27%
14,CO[C@H]1CCN(C(=O)Cc2ccsc2)[C@@H]2CN(CC3CC3)C[C@H]12,-4.21%
15,CN(C)C(=O)Cc1ccc(NCc2nccn2C)cc1,-2.12%
16,CCOC(=O)C1CCN(Cc2csc(-c3ccc(C)o3)n2)CC1,-3.12%
17,O=C(NCC(Cc1cccc(F)c1)N1CCCC1=O)c1ccc(=O)[nH]n1 (configuration not stated),1.13%
18,O=C(NCc1cccnc1N1CCCC(O)C1)c1ccsc1 (configuration not stated),-20.7%
19,O=C(O)c1cccc(C2CCCN(S(=O)(=O)C3CC3)C2)c1 (configuration not stated),-10.8%
20,CCc1nc2ccccc2c(=O)n1CC1(O)CCN(C(=O)C(C)C)CC1,-8.49%
21,CCC1=N[C@@]2(CC[C@@H]3CN(C(=O)NCC4CCCCC4)C[C@@H]32)C(=O)N1,-2.69%
22,CCC(C(=O)N(Cc1ccccn1)C1CCCCC1)n1cccn1 (configuration not stated),22.3%
23,Cc1csc(N(C)C(=O)C(c2c(F)cccc2Cl)N(C)C)n1 (configuration not stated),-0.598%

row,SMILES,cytotoxicity at 70.5 h
1,COc1ccc(OC)c(CCC(=O)Nc2cc(C)n[nH]2)c1,-13.4%
2,Cc1ccc(C(=O)N2CCCC2c2nnc3n2CCCCC3)o1 (configuration not stated),-7.2%
3,CCCSc1nn(CCN(C)C)c2nc3sc(C)c(CC)c3c(=O)n12,32.5%
4,COc1ccc(C(=O)Nc2c(C)nn(C(C)C)c2C)cc1,23.1%
5,CC(C)NC(=O)C1CN(C(=O)Cc2ccccc2)CC12CCOCC2 (configuration not stated),-13.2%
6,CCCNC(=O)C1CCCN(Cc2csc(C(C)(C)C)n2)C1 (configuration not stated),17.8%
7,Cc1cc(C)c(CNC(=O)NC2CCN(C(=O)C(C)C)CC2)c(C)c1,-10.6%
8,CC(=O)N1CCCCC[C@@H]2[C@@H]1[C@H](c1cccc(F)c1)CN2CCC(N)=O,-9.36%
9,Cc1nc(N2CCCC(OCc3ccccn3)C2)c2c(C)noc2n1 (configuration not stated),-9.19%
10,CC(NC(=O)Nc1nnc(-c2ccccn2)s1)C(=O)OC(C)(C)C (configuration not stated),-11.7%
11,O=C(N1CCCC1)N1C[C@H]2CCC[C@@]2(COCc2ccccn2)C1,-10.8%
12,CCn1cnnc1C1CCN(C(=O)c2cc3c(s2)CCCC3)CC1,-9.56%
13,CCSc1cc(C(=O)N(Cc2cnn(C)c2)C(C)C)ccn1,-11.4%
14,CCc1nc(CN2CCCN(C(=O)C(C)n3cncn3)CC2)cs1 (configuration not stated),-8.34%
15,Cc1nc(C)n(CC2CCCN(CCc3ccncc3)C2)n1 (configuration not stated),-2.11%
16,Cc1ccc(C(=O)N(Cc2cccnc2)C[C@@H]2CCC(=O)N2)s1,28%
17,CC(C)(C)OC(=O)NCCNC(=O)c1ccc2cc[nH]c2c1,0.498%
18,FC(F)(F)c1ccc2nc([C@H]3CCN(C4CCCCC4)C3)[nH]c2c1,5.15%
19,COc1cccc(CN2C[C@@H]3COC[C@]3(CN3CCOCC3)C2)c1,6.49%
20,O=C1N(Cc2cccc(F)c2F)CCCC1(O)CN1CCCOCC1 (configuration not stated),-1.1%
21,Cc1cc(C2CCC2)nc(N(C)Cc2ncccc2C)n1,2.14%
22,CCN1CCC(NC(=O)N(C)Cc2csc3ccccc23)CC1,-8.41%
23,Cc1ccc(OCCCC(=O)Nc2nonc2C)cc1C,12%

row,SMILES,cytotoxicity at 70.5 h
1,Cn1cc(NC(=O)N2CCC(NS(C)(=O)=O)CC2)ccc1=O,2.55%
2,COc1cc(N2C[C@@H]3COC[C@]3(C(=O)NC3CC(F)(F)C3)C2)ncn1,-4.63%
3,CCC(Nc1nnnn1-c1ccccc1)C(=O)NCc1cccs1 (configuration not stated),-8.74%
4,Cc1nc(C)n(CC2CCCN(CCC(=O)Nc3cc(C)on3)C2)n1 (configuration not stated),-9.8%
5,c1ccc(OCc2ccncc2)c(CNC2CCc3ncnn3C2)c1 (configuration not stated),17.2%
6,C[C@H]1CN(C(=O)c2cccc(F)c2Cl)CCN1S(C)(=O)=O,-95.8%
7,O=S(=O)(C1CC1)N1C[C@@H]2COC[C@]2(COc2ccccn2)C1,-18.1%
8,CNS(=O)(=O)c1ccc(CNC(=O)c2ccccn2)cc1,-9.5%
9,O=S(=O)(NCC1COCc2c(-c3ccncc3)nnn2C1)C1CC1 (configuration not stated),-3.99%
10,CCN(Cc1ccccc1)C(=O)CCN1C[C@@H](C(=O)O)[C@H](C2CC2)C1,-8.23%
11,CSc1ccc(C(=O)N2CCOCC2c2c(C)nn(C)c2C)o1 (configuration not stated),-4.66%
12,Cn1nnc2c1CCN(Cc1ccco1)C2COCc1ccccc1 (configuration not stated),1.81%
13,CC[C@H](C)[C@@H](CO)NC(C)Cc1ccc(F)cc1 (some centres not stated),-5.84%
14,Cc1ccc(C(=O)O)cc1CNC(=O)CN1CC[C@](C)(O)C(C)(C)C1,-6.88%
15,Cc1nc(C)c(CCN2CCC(Oc3ccccc3F)CC2)s1,8.23%
16,COCCCNC(=O)CN(C)C(=O)CN(C)c1ccc(C#N)cn1,-7.44%
17,CN(CC(=O)N1CCN(c2ncccn2)CC1)c1ccc(Cl)cn1,-7.47%
18,CCOc1ccccc1NC(=O)NCc1ccoc1,-1.18%
19,CC(C)c1nnc2ccc(N3CCC(C(N)=O)CC3)nn12,3.97%
20,COc1cc(N2CCC3(CC2)CN(C)C(=O)CO3)ncn1,16.1%
21,CCN(CC)C(CNCc1cc(F)cc(F)c1)c1ccco1 (configuration not stated),20.8%
22,c1ccc(CN2CCOC3(COCCN(c4ncccn4)C3)C2)nc1 (configuration not stated),-12.3%
23,Cc1cc(F)ccc1OC1(C(=O)O)CCN(Cc2cccnc2)CC1,3.7%

row,SMILES,cytotoxicity at 70.5 h
1,O=C(O)CC[C@@H]1CN(c2ncnc3[nH]ccc23)CC[C@@H]1N1CCOCC1,-4.6%
2,c1cn(CC2CCOCC2)c(-c2cc(CN3CCCC3)cs2)n1,-3.55%
3,CC(C)CNC(=O)c1cccc(CN2CCc3c(ncn3C)C2)c1,-13.6%
4,Cc1cc(N2CCCN(c3nc(C)nc(C)c3C)CC2)ccn1,-11%
5,CCC(Nc1ccc(CCN2CCCCC2)cc1)C(N)=O (configuration not stated),-8.14%
6,CS(=O)(=O)c1cc(C(=O)NS(=O)(=O)Cc2ccc(F)cc2)ccc1Cl,-3.9%
7,COCCNC(=O)[C@H]1CN(Cc2nccs2)C[C@H]2OCC[C@@H]12,-2.35%
8,Cc1ncncc1C(=O)N1CCCC(n2ccnc2C)C1 (configuration not stated),1.79%
9,CC(C)(CN1C[C@H](Nc2ncccn2)[C@@H](C2CC2)C1)N1CCOCC1,-11.6%
10,CC(C)c1nnc2n1CCN(C(=O)COc1ccc(C(N)=O)cc1)C2,-6.98%
11,CC1CN(CCc2ccccn2)CCN1c1ccc2nncn2n1 (configuration not stated),-3.22%
12,CCCN1CCN(C(=O)c2ccnc(N)c2)[C@H]2CS(=O)(=O)C[C@H]21,2.28%
13,O=c1oc(-c2cccs2)nn1CC(O)c1ccc2c(c1)CCC2 (configuration not stated),14.5%
14,Cc1nc(NCc2cccc(F)c2)cc(C2CCNCC2)n1,0.802%
15,O=C1CSC(C(F)(F)F)c2c(O)nn(C3CCCC3)c2N1 (configuration not stated),-22.6%
16,CCOCc1ccccc1NC(=O)NC1CCN(C(=O)OCC)CC1,-5.57%
17,CCc1nc(N)nc(N(C)Cc2nncn2CCOC)c1C,11.8%
18,CC(=O)c1ccc(S(=O)(=O)Nc2cnn(C3CCOCC3)c2)cc1,6.82%
19,COc1ncccc1C(=O)N1CCCC(n2ccnc2)C1 (configuration not stated),-1.13%
20,CCn1nccc1CNC(=O)C(C)n1cc2c(n1)c(C)nn2C (configuration not stated),3.69%
21,Cc1ccc(NC2CCN(C(=O)c3ccc(C#N)cc3)CC2)nn1,-7.94%
22,O=C(NCc1ccco1)c1cccc(C(=O)NCc2ccco2)n1,-20.3%
23,c1ccc(-c2nnc(CN3CCCC3Cn3cncn3)o2)cc1 (configuration not stated),-0.362%

row,SMILES,cytotoxicity at 70.5 h
1,Cn1ccnc1CN1CCN(Cc2cc(-c3ccccc3)no2)CC1,-16.7%
2,NC(=O)c1ccc(C(=O)N2CCCC(n3ccnc3)C2)s1 (configuration not stated),-2.91%
3,Cc1ncccc1C(=O)Nc1ccc2ccn(CCN(C)C)c2c1,-4.81%
4,CN(Cc1cc(-c2ccccc2)no1)Cc1nccn1C,9.3%
5,CNC(=O)c1coc(-c2csc(C)n2)c1,-6.74%
6,CC(Oc1ccccc1C(F)(F)F)C(=O)NCCCC(N)=O (configuration not stated),11.1%
7,O=C(CCCc1ccc(Cl)cc1)N1CCC(c2nnc[nH]2)CC1,-2.6%
8,O=C(NC1CC1)[C@H]1C[C@@H]2CCN(CCc3ccccc3)C[C@H]2O1,-11.8%
9,CCC(=O)N1CCN(C(=O)Cn2cccn2)CC1,-4.66%
10,C[C@]1(O)CCN(Cc2cncs2)C[C@@H]1Oc1cccc(F)c1,-0.0777%
11,COC(=O)c1cccc(C(=O)N2CCCCC2CCn2ccnc2C)c1 (configuration not stated),-1.17%
12,c1coc(-c2nc(CNC3CCC4(CCNCC4)CC3)no2)c1,-3.78%
13,O=C(NCCc1coc(-c2ccc(F)cc2)n1)NC1CC1,-3.96%
14,c1cnnc(N2CCCC2CNc2ncnc3ccsc23)c1 (configuration not stated),-1.29%
15,Cc1cc(C(F)(F)F)nn1CCCNC(=O)C1CCC1,-4.63%
16,CC(=O)c1cc(C(=O)NC2(c3ccc(Br)cc3)CC2)n(C)c1,-3.42%
17,CCc1csc(CNC2CCN(Cc3ccccc3)C2)n1 (configuration not stated),-8.44%
18,CC(CCc1ccccc1)N1CCC(C(=O)Nc2ccccn2)CC1 (configuration not stated),22%
19,Cc1noc(C)c1C(=O)N1CCC2(CCc3ccccc3C(=O)N2)C1 (configuration not stated),-4.04%
20,Cc1ccc(-c2cc(CNC(=O)N3CCC(CO)CC3)on2)cc1,5.23%
